The record followed here is patent US12692269B2, “Therapeutic compounds” (Genentech, Inc., priority 2019, dated 2026).

What all share (assay type): binding
Assay [1] addresses TEAD2 TAZ (amino acids 13-57) (Homo sapiens, UniProt Q15562). Put plainly: TEAD2-TAZ HTRF (TR-FRET) protein-protein interaction assay. The note with it: for TEAD2 TAZ HTRF combined: Max % Inhibition: TEAD2, TAZ peptide; for EC50: TEAD2-TAZ HTRF, TR-FRET 665 nm/615 nm, read-out: TEAD2 TAZ HTRF combined: EC50. Here is the method: (§1) Purified His-tagged TEAD protein (YAP Binding Domain, amino acids 217-447) is pre-incubated with Europium labelled anti-His antibody tracer (Perkin Elmer Cat #AD0110). Small molecule Inhibitors are then incubated with the TEAD-Eu protein complex for 30 minutes to allow for binding to TEAD protein. Biotinylated YAP peptide for TEAD-YAP assays (AA's 50-100) or biotinylated TAZ peptide for TEAD-TAZ assays (AA's 13-57) that has been pre-incubated with streptavidin-xl665 acceptor (CIS-Bio Cat #610SAXAC) or is added to the compound-TEAD mix. The TEAD-YAP-inhibitor mixture is then incubated for 60 minutes at room temperature. All reactions are carried out in a polystyrene plate. After 60 minutes, the plate is read on a plate reader using TR-FRET mode with wavelengths of 665 nm/615 nm. If YAP or TAZ binds to TEAD as expected, a TR-FRET signal results from the proximity of YAP or TAZ and TEAD after binding. If an inhibitor such as peptide 17 (Selleckchem Cat #58164) interferes with YAP-TEAD or TAZ-TEAD binding, the disruption of the YAP or TAZ:TEAD interaction results in a decrease in TR-FRET signal. The potency of compounds as YAP:TEAD or TAZ:TEAD protein-protein interaction (PPi) inhibitors is determined by an IC50 or EC50 value generated using a non-linear four parameter curve fit.
Background: In TR-FRET formats the signal depends on donor and acceptor labels being close together.

For assay [2], the target named is TEAD3 TAZ (amino acids 13-57) (Homo sapiens, UniProt Q99594). In words: TEAD3-TAZ HTRF (TR-FRET) protein-protein interaction assay. The note with it: for TEAD3 TAZ HTRF combined: Max % Inhibition: TEAD3, TAZ peptide; for EC50: TEAD3-TAZ HTRF, TR-FRET 665 nm/615 nm, read-out: TEAD3 TAZ HTRF combined: EC50. Here is the method:
as §1

The target of another assay is TEAD4 YAP50-100 (Homo sapiens, UniProt Q15561). In words: TEAD4-YAP HTRF (TR-FRET) protein-protein interaction assay. The settings on record: TEAD4, YAP peptide 50-100, HTRF; for EC50: read-out: TEAD4 YAP50-100 HTRF combined: EC50. Here is the method:
as §1

The next assay addresses TEAD3 YAP50-100 (Homo sapiens, UniProt Q99594). In words: TEAD3-YAP HTRF (TR-FRET) protein-protein interaction assay. The settings on record: TEAD3, YAP peptide 50-100, HTRF; for EC50: read-out: TEAD3 YAP50-100 HTRF combined: EC50. On the procedure: as §1
A further assay has as its target TEAD2 YAP50-100 (Homo sapiens, UniProt Q15562). In words: TEAD2-YAP HTRF (TR-FRET) protein-protein interaction assay. The note with it: TEAD2, YAP peptide 50-100, HTRF; for EC50: read-out: TEAD2 YAP50-100 HTRF combined: EC50. Here is the method:
as §1

For assay [3], the target named is TEAD1 TAZ (amino acids 13-57) (Homo sapiens, UniProt P28347). Put plainly: TEAD1-TAZ HTRF (TR-FRET) protein-protein interaction assay. The settings on record: for TEAD1 TAZ HTRF combined: Max % Inhibition: TEAD1, TAZ peptide; for EC50: TEAD1-TAZ HTRF, TR-FRET 665 nm/615 nm, read-out: TEAD1 TAZ HTRF combined: EC50. On the procedure: as §1
Assay [4] addresses TEAD4 TAZ (amino acids 13-57) (Homo sapiens, UniProt Q15561). Put plainly: TEAD4-TAZ HTRF (TR-FRET) protein-protein interaction assay. The note with it: for TEAD4 TAZ HTRF combined: Max % Inhibition: TEAD4, TAZ peptide; for EC50: TEAD4-TAZ HTRF, TR-FRET 665 nm/615 nm, read-out: TEAD4 TAZ HTRF combined: EC50. On the procedure:
as §1

The next assay has as its target TEAD1 YAP50-100 (Homo sapiens, UniProt P28347). Put plainly: TEAD1-YAP HTRF (TR-FRET) protein-protein interaction assay. The note with it: TEAD1, YAP peptide 50-100, HTRF; for EC50: read-out: TEAD1 YAP50-100 HTRF combined: EC50. Here is the method:
as §1

Chain of TEAD3 YAP50-100 (Q99594 173-435 limits assumed): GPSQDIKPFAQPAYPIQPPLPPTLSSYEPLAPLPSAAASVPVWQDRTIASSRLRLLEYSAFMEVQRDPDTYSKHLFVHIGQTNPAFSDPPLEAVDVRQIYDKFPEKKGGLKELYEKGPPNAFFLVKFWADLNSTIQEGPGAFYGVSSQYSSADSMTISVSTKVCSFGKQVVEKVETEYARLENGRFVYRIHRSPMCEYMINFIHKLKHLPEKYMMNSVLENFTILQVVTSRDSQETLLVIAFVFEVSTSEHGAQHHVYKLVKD
Chain of TEAD3 TAZ (amino acids 13-57) (Q99594 173-435 limits assumed): as above
Chain of TEAD4 YAP50-100 (Q15561 217-434 limits assumed): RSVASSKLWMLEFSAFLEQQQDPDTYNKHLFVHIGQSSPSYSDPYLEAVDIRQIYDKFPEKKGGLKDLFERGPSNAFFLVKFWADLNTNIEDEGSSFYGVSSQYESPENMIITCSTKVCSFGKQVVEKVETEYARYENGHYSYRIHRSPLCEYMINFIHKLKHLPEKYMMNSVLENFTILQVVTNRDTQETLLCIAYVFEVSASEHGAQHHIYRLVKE
Chain of TEAD4 TAZ (amino acids 13-57) (Q15561 217-434 limits assumed): as above
Chain of TEAD1 YAP50-100 (P28347 167-426 limits assumed): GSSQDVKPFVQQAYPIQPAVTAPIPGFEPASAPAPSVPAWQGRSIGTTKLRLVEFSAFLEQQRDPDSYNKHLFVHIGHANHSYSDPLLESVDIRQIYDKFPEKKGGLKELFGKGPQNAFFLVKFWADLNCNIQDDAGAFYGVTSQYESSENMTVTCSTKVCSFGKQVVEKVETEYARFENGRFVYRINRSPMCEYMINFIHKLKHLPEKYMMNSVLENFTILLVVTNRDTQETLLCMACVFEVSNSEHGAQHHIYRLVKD
Chain of TEAD1 TAZ (amino acids 13-57) (P28347 167-426 limits assumed): as above
Chain of TEAD2 TAZ (amino acids 13-57) (Q15562 217-447): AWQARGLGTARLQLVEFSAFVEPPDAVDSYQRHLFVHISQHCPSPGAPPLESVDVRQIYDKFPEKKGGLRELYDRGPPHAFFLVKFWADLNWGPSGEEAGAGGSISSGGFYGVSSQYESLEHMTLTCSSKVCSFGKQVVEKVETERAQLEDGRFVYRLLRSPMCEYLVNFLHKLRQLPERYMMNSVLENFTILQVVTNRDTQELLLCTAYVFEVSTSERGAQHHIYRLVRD
Chain of TEAD2 YAP50-100 (Q15562 217-447): as above

For the molecule `O=C(c1c(C2CNCCO2)nn2c(=O)cc(-c3ccc(C4CCCCC4)cc3)[nH]c12)N1CC(CF)C1` (single isomer, unassigned) [Enantiomer B, Example 63, 5-(4-Cyclohexylphenyl)-3-[3-(fluoromethyl)azetidine-1-carbonyl]-2-morpholin-2-yl-4H-pyrazolo[1,5-a]pyrimidin-7-one], in assay [1], the “TEAD2 TAZ HTRF combined: Max % Inhibition” value was determined as 65.0% and the EC50 worked out at 30 nM. Further, in assay [2], the “TEAD3 TAZ HTRF combined: Max % Inhibition” value stood at 52.0% and the EC50 is 160 nM. For the same molecule, on TEAD4 YAP50-100, the “TEAD4 YAP50-100 HTRF combined: Max % Inhibition” value worked out at 35.0% and the EC50 worked out at 1090 nM. Also, at TEAD3 YAP50-100, the “TEAD3 YAP50-100 HTRF combined: Max % Inhibition” value amounted to 59.5% and the half-maximal effective concentration (EC50) came out at 150 nM. Also, on TEAD2 YAP50-100, the “TEAD2 YAP50-100 HTRF combined: Max % Inhibition” value was 62.5% and the EC50 turned out to be 40 nM. Moreover, in assay [3], the “TEAD1 TAZ HTRF combined: Max % Inhibition” value turned out to be 52.0% and the EC50 is 140 nM. In assay [4], the “TEAD4 TAZ HTRF combined: Max % Inhibition” value is given as 28.0% and the EC50 worked out at 590 nM. At TEAD1 YAP50-100, the “TEAD1 YAP50-100 HTRF combined: Max % Inhibition” value came out at 62.0% and the EC50 came to 90 nM.
Consider `Cc1nccnc1-c1nn2c(=O)cc(-c3ccc(OC(c4ccccc4)C(F)(F)F)cc3)[nH]c2c1C(=O)N1C[C@H](CF)[C@@H]1C` (single isomer, unassigned) [Final product obtained using Enantiomer A from Step 1, Example 56], for which, in assay [1], the “TEAD2 TAZ HTRF combined: Max % Inhibition” value was 89.0% and the EC50 worked out at 60 nM. In assay [2], the “TEAD3 TAZ HTRF combined: Max % Inhibition” value is recorded as 74.5% and the half-maximal effective concentration (EC50) is 430 nM. At TEAD4 YAP50-100, the “TEAD4 YAP50-100 HTRF combined: Max % Inhibition” value turned out to be 69.5% and the EC50 stood at 2700 nM. Also, on TEAD3 YAP50-100, the “TEAD3 YAP50-100 HTRF combined: Max % Inhibition” value is listed as 81.5% and the EC50 was found to be 370 nM. For the same molecule, on TEAD2 YAP50-100, the “TEAD2 YAP50-100 HTRF combined: Max % Inhibition” value was determined as 92.0% and the EC50 stood at 60 nM. In assay [3], the “TEAD1 TAZ HTRF combined: Max % Inhibition” value was found to be 63.0% and the EC50 worked out at 320 nM. In assay [4], the “TEAD4 TAZ HTRF combined: Max % Inhibition” value amounted to 67.0% and the EC50 was 2250 nM. Besides, on TEAD1 YAP50-100, the “TEAD1 YAP50-100 HTRF combined: Max % Inhibition” value came to 74.0% and the concentration for a half-maximal effect (EC50) amounted to 370 nM.
`CC(CO)c1nn2c(=O)cc(-c3ccc(C4CCCCC4)cc3)[nH]c2c1C(=O)N1CC[C@@H](C#N)C1` (single isomer, unassigned) [Final product obtained using Enantiomer A from Step 4, Example 54]: in assay [1], the “TEAD2 TAZ HTRF combined: Max % Inhibition” value is reported as 71.0% and the concentration giving a half-maximal response (EC50) was 40 nM. Moreover, in assay [2], the “TEAD3 TAZ HTRF combined: Max % Inhibition” value came to 73.0% and the EC50 was found to be 260 nM. For the same molecule, on TEAD4 YAP50-100, the “TEAD4 YAP50-100 HTRF combined: Max % Inhibition” value was 47.5% and the EC50 came to 550 nM. On TEAD3 YAP50-100, the “TEAD3 YAP50-100 HTRF combined: Max % Inhibition” value was found to be 71.5% and the EC50 came out at 250 nM. Also, at TEAD2 YAP50-100, the “TEAD2 YAP50-100 HTRF combined: Max % Inhibition” value is given as 65.0% and the EC50 was found to be 40 nM. For the same molecule, in assay [3], the “TEAD1 TAZ HTRF combined: Max % Inhibition” value came out at 41.5% and the EC50 was 240 nM. Besides, in assay [4], the “TEAD4 TAZ HTRF combined: Max % Inhibition” value stood at 44.5% and the EC50 amounted to 480 nM. Further, on TEAD1 YAP50-100, the “TEAD1 YAP50-100 HTRF combined: Max % Inhibition” value stood at 59.0% and the EC50 was determined as 130 nM.

By EC50 is commonly meant the concentration needed to bring the measured effect to its halfway point.
